# Assay results reported in patent US7388008B2, “Lysine based compounds” (priority 2004, dated 2008).
# Experiment: Bioavailability: plasma concentration after single oral dose in rats
# Assay type: in vivo, male Sprague-Dawley rats
# Conditions: for AUC: 50 mg/Kg po, rat plasma; for Delivery of parent drug (PL-100, PL-337) compared to non-aqueous formulations of PL-100 and PL-337: aqueous dosing; for Delivery of parent drug (PL-100, PL-337) compared to non-aqueous formulations of PL-100 and PL-337 / Administered compound detected in the blood samples: 50 mg/kg po, rat; for Administered compound detected in the blood samples: delivered as aqueous solutions
# Experimental: To assess the extent of in vivo cleavage of the phosphate group from the putative compounds, PL-100, PL-462 (based on PL-100), PL-337 and PL-515 (based on PL-337) compounds were administered po (50 mg/kg) to male Sprague-Dawley rats and their plasma concentration measured at different time intervals post-administration. All test articles (PL-100, PL-462, PL-337 and PL-515) were prepared in different vehicle at the final concentration of 25 mg/mL. The vehicle composition is as follows: (1) 20% ethanol; 50% propylene glycol; 0.05% w/v Tween 20 and water (Mix); (2) PBS buffer (PBS). Test articles were administered to male Sprague-Dawley rats at a single oral dose of 50 mg/kg. Each article was tested in three rats. Blood samples (0.2–0.3 mL) were collected at the post-dose time of 10, 20, 40, 60, 120, 180 and 360 minutes. The harvested blood was centrifuged to isolate plasma. The resulting plasma was separated and stored at −70° C. Plasma samples together with standards and quality control samples were treated to precipitate proteins, then analyzed by HPLC-MS, for the presence of PL-462, PL-100, PL-515 and PL-337.
# [1] = vehicle Mix (20% ethanol; 50% propylene glycol; 0.05% w/v Tween 20 and water)
# [2] = vehicle PBS, parent drug (PL-100 or PL-337) detected
AUC [1],AUC [2],"Delivery of parent drug (PL-100, PL-337) compared to non-aqueous formulations of PL-100 and PL-337",Administered compound detected in the blood samples,SMILES
1.180 μg/hr * ml,,,,"COC(=O)N[C@H](C(=O)NCCCC[C@@H](CO)N(CC(C)C)S(=O)(=O)c1ccc(N)c(F)c1)C(c1ccccc1)c1ccccc1 [PL-337, (1-{5-[(4-amino-3-fluoro-benzenesulfonyl)-isobutyl-amino]-6-hydroxy-hexylcarbamoyl}-2,2-diphenyl-ethyl)-carbamic acid methyl ester]"
,1.075 μg/hr * ml,equivalent to slightly superior,None,"COC(=O)N[C@H](C(=O)NCCCC[C@@H](COP(=O)(O)O)N(CC(C)C)S(=O)(=O)c1ccc(N)c(F)c1)C(c1ccccc1)c1ccccc1 [PL-515, (1S,5S)-(1-{5-[(4-amino-3-fluoro-benzenesulfonyl)-isobutyl-amino]-6-phosphonooxy-hexylcarbamoyl}-2,2-diphenyl-ethyl)-carbamic acid methyl ester]"
,0.816 μg/hr * ml,equivalent to slightly superior,None,"COC(=O)N[C@H](C(=O)NCCCC[C@@H](COP(=O)(O)O)N(CC(C)C)S(=O)(=O)c1ccc(N)cc1)C(c1ccccc1)c1ccccc1.[Na] [PL-462, (1S,5S)-(1-{5-[(4-amino-benzenesulfonyl)-isobutyl-amino]-6-phosphonooxy-hexylcarbamoyl}-2,2-diphenyl-ethyl)-carbamic acid methyl ester sodium salt]"
0.675 μg/hr * ml,,,,"COC(=O)N[C@H](C(=O)NCCCC[C@@H](CO)N(CC(C)C)S(=O)(=O)c1ccc(N)cc1)C(c1ccccc1)c1ccccc1 [PL-100, (1S,5S)-(1-{5-[(4-amino-benzenesulfonyl)-isobutyl-amino]-6-hydroxy-hexylcarbamoyl}-2,2-diphenyl-ethyl)-carbamic acid methyl ester]"
